Legend:
Assay type in all cases: in vivo
[1] = test system: Oryza sativa subsp. indica; experiment: Greenhouse herbicidal activity and crop safety comparison (Test Example 2)
Description: (§1) Pre-emergence: Seeds of gramineous weeds (Echinochloa crusgalli, Echinochloa crusgalli var. zelayensis, Echinochloa phyllopogon, Eleusine indica, Digitaria sanguinalis, Leptochloa chinensis, Setaria viridis, Alopecurus japonicus Steud, Beckmannia syzigachne, Polypogon fugax, Alopecurus aequalis, Lolium multiflorum, Poa annua, Aegilops tataschii, Avena fatua, Alopecurus myosuroides, Bromus japonicus), broadleaf weeds (Eclipta prostrata, Amaranthus retroflexus, Rorippa indica, Myosoton aquaticum, Veronica didyma, Galium aparine, Solanum nigrum, Xanthium sibiricum, Conyza canadensis, Sesbania cannabina, Sagittaria trifolia), and Cyperus iria (Cyperus iria, Scirpus juncoides, Cyperus difformis, etc.) were sown in plastic pots (7 cm diameter) with nutrient soil and bottom holes. Crop seeds (including Oryza sativa subsp. indica, Oryza sativa subsp. japonica, Oryza sativa L. var. Glutinosa matsum, Triticum aestivum, Zea mays, Sorghum bicolor, Setaria italica, Glycine max, Gossypium hirsutum, Brassica napus, Arachis hypogaea) were sown in plastic pots (10 cm diameter) with nutrient soil and bottom holes. After sowing, the seeds were lightly covered with soil, and the soil was moistened via bottom water absorption. The pots were placed in a constant-temperature light-controlled growth chamber for 24 hours before soil spraying. Spraying was performed using a 3WP-2000 walking-type spray tower (produced by the Nanjing Agricultural Mechanization Institute, Ministry of Agriculture) with a spindle speed of 96 mm/r, spray height of 300 mm, effective spray width of 350 mm, spray area of 0.35 m^2, and nozzle flow rate of 390 mL/min.
(§2) After treatment, the test materials were air-dried naturally in the laboratory and then transferred to the growth chamber. Results were assessed 14-30 days later.
(§3) Post-emergence: Seeds of gramineous weeds (Echinochloa crusgalli, Echinochloa crusgalli var. zelayensis, Echinochloa phyllopogon, Eleusine indica, Digitaria sanguinalis, Leptochloa chinensis, Setaria viridis, Alopecurus japonicus Steud, Beckmannia syzigachne, Polypogon fugax, Alopecurus aequalis, Lolium multiflorum, Poa annua, Aegilops tataschii, Avena fatua, Alopecurus myosuroides, Bromus japonicus), broadleaf weeds (Eclipta prostrata, Amaranthus retroflexus, Rorippa indica, Myosoton aquaticum, Veronica didyma, Galium aparine, Solanum nigrum, Xanthium sibiricum, Conyza canadensis, Sesbania cannabina, Sagittaria trifolia), and Cyperus iria (Cyperus iria, Scirpus juncoides, Cyperus difformis, etc.) were sown in plastic pots (7 cm diameter) with nutrient soil and bottom holes. Crop seeds (including Oryza sativa subsp. indica, Oryza sativa subsp. japonica, Oryza sativa L. var. Glutinosa matsum, Triticum aestivum, Zea mays, Sorghum bicolor, Setaria italica, Glycine max, Gossypium hirsutum, Brassica napus, Arachis hypogaea) were sown in plastic pots (10 cm diameter) with nutrient soil and bottom holes. After sowing, the pots were placed in the growth chamber until the plants reached the 3-6 leaf stage for foliar spraying. Post-treatment, the materials were air-dried naturally and returned to the growth chamber. Results were assessed 14-21 days later.
(§4) • A: Fresh weight inhibition rate≥80% to 100%; • B: Fresh weight inhibition rate[…] to <80%; • C: Fresh weight inhibition rate≥40% to <60%; • D: Fresh weight inhibition rate≥20% to <40%; • E: Fresh weight inhibition rate<20%; • NT: Not tested.
(§5) Using the above method, the herbicidal activity and crop safety of the present compounds were compared with structurally similar known compounds (CK1, CK2, CK3, CK4: compounds 4-756, 4-759, 1-557, 1-563 from WO2012028579A1; CK5: compound 290-1 from WO2013087577A1; CK6: compound 1-129 from WO2011035874A1).

Echinochloa crusgalli [2] = experiment: as above; settings: Echinochloa crus-galli, read-out: Echinochloa crusgalli, control efficacy grading (fresh weight inhibition rate)
Description: as §1, §2, §3, §4, §5

[3] = test system: Oryza sativa subsp. japonica; experiment: as above
Description: as §1, §2, §3, §4, §5

Echinochloa crusgalli [4] = experiment: Greenhouse herbicidal activity assay, post-emergence; settings: Post-emergence test, rate 150 g a.i./hm^2, grade by fresh weight inhibition rate
Method in brief: (§6)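 Weeds were sown in nutrient soil in 7 cm pots and grown in a growth chamber to the 3-6 leaf stage, then foliar-sprayed, air-dried and returned to the chamber. Fresh weight inhibition was scored 14-21 days later in bands from A (≥80% to 100%) to E (<20%).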

Eclipta prostrata = experiment: as above; settings: Post-emergence test, rate 150 g a.i./hm^2, grade by fresh weight inhibition rate
Method in brief: as §6

Cyperus iria = experiment: as above; settings: Post-emergence test, rate 150 g a.i./hm^2, grade by fresh weight inhibition rate
Method in brief: as §6

Digitaria sanguinalis = experiment: as above; settings: Post-emergence test, rate 150 g a.i./hm^2, grade by fresh weight inhibition rate
Method in brief: as §6

Leptochloa chinensis = experiment: as above; settings: Post-emergence test, rate 150 g a.i./hm^2, grade by fresh weight inhibition rate
Method in brief: as §6

| Structure (SMILES) | Oryza sativa subsp. indica, grading of fresh weight inhibition rate (crop safety) ([1]; Rate 150 g/ha) | Oryza sativa subsp. japonica, grading of fresh weight inhibition rate (crop safety) ([3]; Rate 150 g/ha) | Control efficacy grade, Echinochloa crusgalli (Echinochloa crusgalli [4]) | Control efficacy grade, Eclipta prostrata (Eclipta prostrata) | Control efficacy grade, Cyperus iria (Cyperus iria) | Control efficacy grade, Digitaria sanguinalis (Digitaria sanguinalis) | Control efficacy grade, Leptochloa chinensis (Leptochloa chinensis) | other results |
| --- | --- | --- | --- | --- | --- | --- | --- | --- |
| Cn1nnnc1NC(=O)c1ccc(S(C)(=O)=O)c(S(C)(=O)=O)c1Cl [CK1, reference compound] | B (Fresh weight inhibition rate≥260% to <80%) | B (Fresh weight inhibition rate≥260% to <80%) |  |  |  |  |  | Oryza sativa subsp. indica, grading of fresh weight inhibition rate (crop safety) ([1]; Rate 18.75 g/ha): C (Fresh weight inhibition rate≥40% to <60%); Oryza sativa subsp. indica, grading of fresh weight inhibition rate (crop safety) ([1]; Rate 75 g/ha): C (Fresh weight inhibition rate≥40% to <60%); inhibition at 75 g/ha (Echinochloa crusgalli [2]; Rate 75 g/ha): 80 to 100%; inhibition at 150 g/ha (Echinochloa crusgalli [2]; Rate 150 g/ha): 80 to 100%; Oryza sativa subsp. japonica, grading of fresh weight inhibition rate (crop safety) ([3]; Rate 18.75 g/ha): C (Fresh weight inhibition rate≥40% to <60%); Oryza sativa subsp. japonica, grading of fresh weight inhibition rate (crop safety) ([3]; Rate 75 g/ha): C (Fresh weight inhibition rate≥40% to <60%) |
| CCc1nnc(N(C)C(=O)c2ccc(S(C)(=O)=O)c([S+]([O-])C(C)C)c2Cl)o1 (racemic) [Compound 3-810] | E (Fresh weight inhibition rate<20%) | E (Fresh weight inhibition rate<20%) | B (Fresh weight inhibition rate≥260% to <80%) |  |  |  |  |  |
| CC(C)[S+]([O-])c1c(S(C)(=O)=O)ccc(C(=O)N(C)c2nnco2)c1Cl (racemic) [Compound 3-804] | E (Fresh weight inhibition rate<20%) | E (Fresh weight inhibition rate<20%) | A (Fresh weight inhibition rate≥80% to 100%) |  |  |  |  |  |
| Cn1ncnc1NC(=O)c1ccc(S(C)(=O)=O)c([S+]([O-])CC2CC2)c1Cl (single isomer, unassigned) [Compound 2-29] |  |  | A (Fresh weight inhibition rate≥80% to 100%) | A (Fresh weight inhibition rate≥80% to 100%) | A (Fresh weight inhibition rate≥80% to 100%) | A (Fresh weight inhibition rate≥80% to 100%) | A (Fresh weight inhibition rate≥80% to 100%) |  |
| CS(=O)(=O)c1ccc(C(=O)Nc2nnco2)c(Cl)c1SCC1CC1 [Compound 3-298] |  |  | A (Fresh weight inhibition rate≥80% to 100%) | A (Fresh weight inhibition rate≥80% to 100%) | A (Fresh weight inhibition rate≥80% to 100%) | A (Fresh weight inhibition rate≥80% to 100%) | A (Fresh weight inhibition rate≥80% to 100%) |  |
| CCC[S+]([O-])c1c(S(C)(=O)=O)ccc(C(=O)Nc2nnnn2CC)c1Cl (racemic) [Compound 1-88] |  |  | A (Fresh weight inhibition rate≥80% to 100%) | A (Fresh weight inhibition rate≥80% to 100%) | A (Fresh weight inhibition rate≥80% to 100%) | A (Fresh weight inhibition rate≥80% to 100%) | A (Fresh weight inhibition rate≥80% to 100%) |  |
| Cc1nnc(NC(=O)c2ccc(S(C)(=O)=O)c([S+]([O-])CC3CC3)c2Cl)o1 (racemic) [Compound 3-38] |  |  | A (Fresh weight inhibition rate≥80% to 100%) | A (Fresh weight inhibition rate≥80% to 100%) | A (Fresh weight inhibition rate≥80% to 100%) | A (Fresh weight inhibition rate≥80% to 100%) | A (Fresh weight inhibition rate≥80% to 100%) |  |
| Cc1nonc1NC(=O)c1ccc(S(C)(=O)=O)c([S+]([O-])CC2CC2)c1Cl (stereo not shown) [Compound 4-33, 2-chloro-3-((cyclopropylmethyl)sulfinyl)-N-(4-methyl-1,2,5-oxadiazol-3-yl)-4-(methylsulfonyl)benzamide] |  |  |  |  |  |  |  | pest or weed control at 150 g/ha (Echinochloa crusgalli [4]; Echinochloa crus-galli, read-out: Control efficacy grade, Echinochloa crusgalli): 80 to 100%; pest or weed control at 150 g/ha (Eclipta prostrata; Eclipta prostrata, read-out: Control efficacy grade, Eclipta prostrata): 80 to 100%; pest or weed control at 150 g/ha (Cyperus iria; Cyperus iria, read-out: Control efficacy grade, Cyperus iria): 80 to 100%; pest or weed control at 150 g/ha (Digitaria sanguinalis; Digitaria sanguinalis, read-out: Control efficacy grade, Digitaria sanguinalis): 80 to 100%; pest or weed control at 150 g/ha (Leptochloa chinensis; Dinebra chinensis, read-out: Control efficacy grade, Leptochloa chinensis): 80 to 100% |
| CCC(C)S(=O)(=O)c1c(S(C)(=O)=O)ccc(C(=O)Nc2nnc(C)o2)c1Cl (single isomer, unassigned) [Compound 3-25] |  |  | A (Fresh weight inhibition rate≥80% to 100%) | A (Fresh weight inhibition rate≥80% to 100%) | A (Fresh weight inhibition rate≥80% to 100%) | A (Fresh weight inhibition rate≥80% to 100%) | A (Fresh weight inhibition rate≥80% to 100%) |  |
| CC(C)[S+]([O-])c1c(S(C)(=O)=O)ccc(C(=O)Nc2nnc(C3CC3)o2)c1Cl (single isomer, unassigned) [Compound 3-622] |  |  | A (Fresh weight inhibition rate≥80% to 100%) | A (Fresh weight inhibition rate≥80% to 100%) | A (Fresh weight inhibition rate≥80% to 100%) | A (Fresh weight inhibition rate≥80% to 100%) | A (Fresh weight inhibition rate≥80% to 100%) |  |
| Cc1nnc(N(C)C(=O)c2ccc(S(C)(=O)=O)c([S+]([O-])C(C)C)c2Cl)o1 (racemic) [Compound 3-807] | E (Fresh weight inhibition rate<20%) | E (Fresh weight inhibition rate<20%) | A (Fresh weight inhibition rate≥80% to 100%) |  |  |  |  | Oryza sativa subsp. indica, grading of fresh weight inhibition rate (crop safety) ([1]; Rate 75 g/ha): E (Fresh weight inhibition rate<20%); Oryza sativa subsp. japonica, grading of fresh weight inhibition rate (crop safety) ([3]; Rate 75 g/ha): E (Fresh weight inhibition rate<20%) |
| C#CCSc1c(S(C)(=O)=O)ccc(C(=O)Nc2nnc(C)o2)c1Cl [Compound 3-147] |  |  | B (Fresh weight inhibition rate≥260% to <80%) | A (Fresh weight inhibition rate≥80% to 100%) | B (Fresh weight inhibition rate≥260% to <80%) | A (Fresh weight inhibition rate≥80% to 100%) | A (Fresh weight inhibition rate≥80% to 100%) |  |
| CCc1nnc(NC(=O)c2ccc(S(C)(=O)=O)c([S+]([O-])C3CCCC3)c2Cl)o1 (racemic) [Compound 3-430] |  |  | A (Fresh weight inhibition rate≥80% to 100%) | A (Fresh weight inhibition rate≥80% to 100%) | A (Fresh weight inhibition rate≥80% to 100%) | A (Fresh weight inhibition rate≥80% to 100%) | A (Fresh weight inhibition rate≥80% to 100%) |  |

From patent US20250223268A1, “4-Methylsulfonylbenzamide Compound, Preparation Method, Herbicidal Composition And Use” (Jiangsu Flag Chemical Industry Co., Ltd., priority 2022, published 2025)
